Results on two molecules are retold here after paper PMC4435638, “Phase I trial of volasertib, a Polo-like kinase inhibitor, plus platinum agents in solid tumors: safety, pharmacokinetics and activity” (Investigational New Drugs, 2015).

Like-named read-outs stand apart in the source and are kept apart here.

Data set [1] has as its system in vitro and murine xenograft models. Conditions: BI 2536 combined with cisplatin, cited from earlier work.
A further data set relates to Plk. The arrangement: method as in PMID 19383823. Particulars: cited from earlier work.
Data set [2] has as its system patients with progressive advanced or metastatic solid tumors. The arrangement: method as in PMID 22119200. Particulars: cited from earlier work.
Details of data set [3]: method as in PMID 19383823. Particulars: preclinical studies, compared with BI 2536; cited from earlier work.
In data set [4] the test system is unrelated kinases (>50 other kinases). The arrangement: method as in PMID 19383823. Conditions: at concentrations up to 10 μM; cited from earlier work.
Data set [5] can be described thus: Plasma pharmacokinetics of volasertib and CD 10899 (HPLC-MS/MS). The data set is classed as in vivo, human. Conditions: for clearance / Vd / half-life: human, intravenous; for clearance / Vd / half-life / AUC0-∞,norm, gMean / Cmax,norm, gMean: plasma; for clearance / Vd / half-life / AUC0-∞,norm, gMean: n = 28; for clearance: read-out: CL (total clearance), gMean; for Vd: read-out: Vss (apparent volume of distribution at steady state), gMean; for half-life: read-out: t1/2 (terminal half-life), gMean (converted). As for the experimental part: Blood was collected at specified time points during the first and second cycles of each treatment schedule for pharmacokinetic analyses to determine the plasma concentration of volasertib and/or total platinum. Plasma concentrations in cycle 1 were determined before the start of platinum infusions (–1 hour 35 minutes relative to the start of the volasertib infusion), shortly before the end of platinum infusion (–30 minutes), during volasertib infusion (1 hour), immediately before the end of volasertib infusion (2 hours), and at 3, 8, 24, 48, 168, and 336 hours after the start of volasertib infusion. The plasma concentrations in cycle 2 were determined before the start of platinum infusions (–1 hour 35 minutes), shortly before end of platinum infusion (–30 minutes), and immediately before the end of volasertib infusion (2 hours). Plasma concentrations of both volasertib and CD 10899, the predominant circulating hydroxylated metabolite of volasertib previously identified in early clinical studies of volasertib metabolism in cancer patients, were determined simultaneously by validated high performance liquid chromatography-tandem mass spectrometry (HPLC-MS/MS) assay using [D3]volasertib and [D3]CD 10899 as internal standards. The samples were subjected to solid-phase extraction in a 96-well plate format. Chromatography was achieved on an analytical reversed-phase HPLC column with gradient elution. The substances were detected and quantified by HPLC-MS/MS using electrospray ionization in the positive ion mode. Assay performance during the study was assessed by back-calculation of calibration standards, tabulation of the standard curve fit function parameters and measurement of quality control samples. […] Samples were diluted and acidified prior to analysis and were introduced into the ICP-MS system without further sample preparation. The ions were separated and detected in the mass spectrometer and the peak areas of platinum and lutetium were determined.

Setting [6] is: volasertib combined with carboplatin.
Where [7] appears, read: volasertib combined with cisplatin.

For `CC[C@@H]1C(=O)N(C)c2cnc(Nc3ccc(C(=O)NC4CCN(C)CC4)cc3OC)nc2N1C1CCCC1` [BI 2536], the “Efficacy compared with cisplatin alone” value in data set [1] (in vitro and murine xenograft models) was “improved efficacy”. Moreover, the “Combination effect versus either therapy alone” value in data set [1] (preclinical data) is recorded as “may confer synergism”.

As for `CC[C@@H]1C(=O)N(C)c2cnc(Nc3ccc(C(=O)N[C@H]4CC[C@H](N5CCN(CC6CC6)CC5)CC4)cc3OC)nc2N1C(C)C` [Volasertib], the “Concentrations at which Plk is targeted (mitotic arrest and apoptosis)” value in the data set with Plk is “low nanomolar concentrations”. Further, the “MTD of single-agent volasertib” value in data set [2] (phase I study, monotherapy) is 400 mg. In data set [2] (single agent, based on overall tolerability), the “Recommended dose for further clinical investigation” value is recorded as 300 mg. The “Patients with confirmed partial response (PR)” value in data set [2] (single agent, urothelial cancer, ovarian cancer, or melanoma) is given as “three patients”. In data set [3], the “Terminal half-life (t1/2)” value was “long terminal half-life” and the Volume of distribution result was “high volume of distribution”. Moreover, the “Inhibition of unrelated kinases (>50 other kinases)” value in data set [4] is on record as “does not inhibit”. In addition, in data set [5] (co-administration), the “Influence of cisplatin or carboplatin on the pharmacokinetics or metabolism of volasertib” value is on record as “no influence”. In data set [5] (setting [6]), the clearance was determined as 865 mL/min, the Vd worked out at 7550 L and the half-life was 166 h. Further, in data set [5] (setting [7]), the clearance was 999 mL/min, the Vd was 6780 L and the half-life is 137 h. The “AUC0-∞,norm, gMean” value in data set [5] (volasertib i.v. infusion combined with carboplatin) is 19.3 [ng · h/mL]/mg. For the same molecule, in data set [5] (volasertib i.v. infusion combined with carboplatin, n = 29), the “Cmax,norm, gMean” value is 1.40 [ng/mL]/mg. Further, the “AUC0-∞,norm, gMean” value in data set [5] (volasertib i.v. infusion combined with cisplatin) is 16.7 [ng · h/mL]/mg. Besides, the “Cmax,norm, gMean” value in data set [5] (volasertib i.v. infusion combined with cisplatin, n = 30) is 1.29 [ng/mL]/mg.

In general, clearance refers to a measure of how efficiently the substance is removed, as volume per time.
